Laboratory results published in US8318731B2, “Pyrrolopyrimidines” (Janssen Pharmaceutica NV, priority 2007, dated 2012).

Columns and labels:
PLK4 (h) = target: T1, PLK4 (h) (Homo sapiens, UniProt O00444); assay: PLK-4 human kinase scintillation proximity assay (SPA); type: biochemical; conditions: 1 μM ATP, 60 minutes at r.t., read-out: PLK4 pIC50 (converted)
T1 sequence (O00444 1-970): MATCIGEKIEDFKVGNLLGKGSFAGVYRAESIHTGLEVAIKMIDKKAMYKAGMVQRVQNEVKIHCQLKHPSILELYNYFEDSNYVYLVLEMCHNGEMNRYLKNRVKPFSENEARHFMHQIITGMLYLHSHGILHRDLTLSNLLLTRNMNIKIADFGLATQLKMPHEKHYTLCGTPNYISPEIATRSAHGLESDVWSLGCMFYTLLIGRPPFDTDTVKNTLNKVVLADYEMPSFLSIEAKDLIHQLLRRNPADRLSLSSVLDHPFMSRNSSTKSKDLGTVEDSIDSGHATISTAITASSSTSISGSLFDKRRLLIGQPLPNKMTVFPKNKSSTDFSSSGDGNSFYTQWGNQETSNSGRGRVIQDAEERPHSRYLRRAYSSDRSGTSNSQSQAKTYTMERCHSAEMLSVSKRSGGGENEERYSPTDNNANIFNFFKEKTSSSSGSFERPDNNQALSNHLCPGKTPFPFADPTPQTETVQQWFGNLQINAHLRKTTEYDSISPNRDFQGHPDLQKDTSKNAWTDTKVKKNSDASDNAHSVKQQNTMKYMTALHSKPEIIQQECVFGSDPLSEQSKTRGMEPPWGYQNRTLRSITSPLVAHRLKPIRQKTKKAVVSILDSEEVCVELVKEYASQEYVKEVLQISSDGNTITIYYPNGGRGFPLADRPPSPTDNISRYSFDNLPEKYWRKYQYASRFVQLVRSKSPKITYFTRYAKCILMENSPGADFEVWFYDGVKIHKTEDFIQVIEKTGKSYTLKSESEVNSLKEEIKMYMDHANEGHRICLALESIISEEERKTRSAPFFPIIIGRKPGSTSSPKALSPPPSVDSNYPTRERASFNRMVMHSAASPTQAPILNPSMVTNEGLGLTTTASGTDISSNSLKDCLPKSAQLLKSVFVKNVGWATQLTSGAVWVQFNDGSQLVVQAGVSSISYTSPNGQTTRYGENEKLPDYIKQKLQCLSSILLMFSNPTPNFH
Outline: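 Human PLK4 (19 μg/ml) reacted with 10 μM biotinylated peptide, 1 μM ATP plus 2 nM [γ-33P]ATP in HEPES pH 8.0 with MgCl2, NaCl, NaF and DTT for 60 min at r.t. After an EDTA stop, phosphorylated substrate was captured on streptavidin PVT SPA beads and scintillation imaged.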

A2780 = assay: Cellular proliferation assay (Alamar blue), A2780; type: cell-based; conditions: Homo sapiens, A2780, A2780 cells; 10% FCS; 72 h with compound; Alamar blue 24 h; read-out: pIC50 A2780 (converted)
Outline: (§1)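 10% FCS, 37° C., 5% CO2; seed, 24 h no compound; 72 h compound; Alamar blue (resazurin 9 μg/ml, ferro-/ferricyanide 90 μM each) 4 h HCT-116, 6 h U87-MG, 24 h PC3/A2780; fluorescence 544/590 nm; normalised to controls.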

PC3 = assay: Cellular proliferation assay (Alamar blue), PC3; type: cell-based; conditions: Homo sapiens, PC-3, PC-3 cells; 10% FCS; 72 h with compound; Alamar blue 24 h; read-out: pIC50 PC-3 (converted)
Outline: as §1

H1299 = assay: Cellular proliferation assay (Alamar blue), H1299; type: cell-based; conditions: Homo sapiens, NCI-H1299, H1299 cells; 10% FCS; 72 h with compound; Alamar blue 4 h; read-out: pIC50 H1299 (converted)
Outline: (§2)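 Viable cell number is determined by Alamar blue conversion after cells are treated with compound for 72 hours, following 24 hours of growth without compound in 10% FCS. The effect is calculated against control cells.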

MDA-MB-231 = assay: Cellular proliferation assay (Alamar blue), MDA-MB-231; type: cell-based; conditions: Homo sapiens, MDA-MB-231, MDA-MB-231 cells; 10% FCS; 72 h with compound; Alamar blue 24 h; read-out: pIC50 MDA/MB231 (converted)
Outline: as §2

U87-MG = assay: Cellular proliferation assay (Alamar blue), U87-MG; type: cell-based; conditions: Homo sapiens, U-87 MG; U87-MG cells; 10% FCS; 72 h with compound; Alamar blue 6 h; read-out: pIC50 U87MG (converted)
Outline: as §1

HCT-116 = assay: Cellular proliferation assay (Alamar blue), HCT-116; type: cell-based; conditions: Homo sapiens; HCT-116 cells; 10% FCS; 72 h with compound; Alamar blue 4 h; read-out: pIC50 HCT-116 (converted)
Outline: as §1

Compound | IC50 (PLK4 (h)) | IC50 (A2780) | IC50 (PC3) | melting point | IC50 (H1299) | IC50 (MDA-MB-231) | IC50 (U87-MG) | IC50 (HCT-116)
CCOCCOc1ccc2cc1OCC(=O)N(C)CCCN(C)Cc1c[nH]c3ncnc(c13)N2 [Compound 70] | 25.1 nM | 79.4 nM | 3980 nM | 237.8 °C | 501 nM | 2510 nM | 1580 nM | 100 nM
COc1ccc2cc1OCC(=O)N(C)CCCN(C)Cc1c[nH]c3ncnc(c13)N2 [Compound 7] | 39.8 nM | 631 nM | 2000 nM | 267.9 °C | 1000 nM | 1580 nM | 1260 nM | 501 nM
COc1ccc2cc1OCC(=O)N(C)CCN(C)Cc1c[nH]c3ncnc(c13)N2 [Compound 10] | 126 nM | > 10000 nM | > 10000 nM | 249.3 °C | > 10000 nM | > 10000 nM | > 10000 nM | > 10000 nM
CCOCCOc1ccc2cc1OCC(=O)N(C)CCCNCc1c[nH]c3ncnc(c13)N2 [Compound 75] | 39.8 nM | 631 nM | > 10000 nM | 237.4 °C | > 10000 nM | > 10000 nM | > 10000 nM | 794 nM

Continued, values first:

IC50 (PLK4 (h)) | IC50 (A2780) | IC50 (PC3) | melting point | IC50 (H1299) | IC50 (MDA-MB-231) | IC50 (U87-MG) | IC50 (HCT-116) | Compound
100 nM | 200 nM | 3980 nM | 269.3 °C | 794 nM | 5010 nM | 3160 nM | 251 nM | CN1CCCN(C)C(=O)COc2cc(ccc2OCCNc2ccc(Cl)cc2)Nc2ncnc3[nH]cc(c23)C1 [Compound 79]
79.4 nM | 200 nM | > 10000 nM | 221 °C | 631 nM | 2000 nM | 501 nM | 251 nM | CCOCCOc1ccc2cc1OCC(=O)N(C)CCCN(C)Cc1cn(C)c3ncnc(c13)N2 [Compound 81]
